Reference: US11466008B2, “Co-crystals of neflamapimod (VX-745)” (EIP Pharma, LLC, priority 2017, dated 2022)
Values after ≈ are worked out from the molar mass of the structure shown.

Columns and labels:
[1] = Dissolution study in water at ambient temperature (HPLC); assay type: physicochemical
Procedure: HPLC analyses were carried out on an Agilent 1100 series instrument equipped with a UV detector using the following materials and operating parameters:
Dissolution studies were carried out for VX-745 at ambient temperature using water, as described by the HPLC Analysis protocol described above.
Dissolution studies were carried out for the CC-6 at ambient temperature using water, as described by the HPLC Analysis protocol described above.
Dissolution studies were carried out for the CC-11 at ambient temperature using water, as described by the HPLC Analysis protocol described above.

[2] = Dissolution study in FaSSIF at ambient temperature (HPLC; XRPD of remaining solids); conditions: for ending solubility / peak solubility: medium: FaSSIF; for ending solubility / peak solubility / Concentration: ambient temperature; for Concentration: FaSSIF, 3 hrs
From the text: (§1) The first dissolution medium tested was fasted state simulated intestinal fluid (FaSSIF) at ambient temperature. […] The second dissolution medium tested was fed state simulated intestinal fluid (FeSSIF) at ambient temperature.
(§2) Upon the completion of each experiment, the remaining solid was recovered and analyzed by XRPD.
(§3) High-Performance Liquid Chromatography (HPLC) Analyses.

[3] = Dissolution study in FeSSIF at ambient temperature (HPLC; XRPD of remaining solids); conditions: for Concentration: FeSSIF; for Concentration / ending solubility / peak solubility: ambient temperature; for ending solubility / peak solubility: medium: FeSSIF
From the text: as §1, §2, §3

[4] = Estimated solubility of VX-745 in solvents (solvent aliquot addition, visual inspection); assay type: physicochemical; conditions: thermodynamic from solid
Procedure: Solubilities of VX-745 in several solvents were estimated. The experiments were carried out by adding test solvents in aliquots to weighed portions of solid. Whether dissolution had occurred was judged by visual inspection after addition of each solvent aliquot. Solubility numbers were calculated by dividing the total amount of solvent used to dissolve the sample by the weight of the sample. The actual solubilities may be greater than the numbers calculated because of the use of solvent aliquots that were too large or because of slow dissolution rates. […] The solubility number is expressed as “greater than or equal to” if dissolution occurred on addition of the first solvent aliquot.

[5] = FaSSIF (fasted state simulated intestinal fluid), fassif, thermodynamic from solid
[6] = FeSSIF (fed state simulated intestinal fluid), fessif, thermodynamic from solid

## O=C(O)CCCC(=O)O.O=c1ncn2nc(Sc3ccc(F)cc3F)ccc2c1-c1c(Cl)cccc1Cl [CC-6]
[1]; 2 mins
  Solubility: 23.78 µg/mL
[1]; 5 mins
  Solubility: 39.17 µg/mL
[1]; 10 mins
  Solubility: 51.39 µg/mL
[1]; 15 mins
  Solubility: 67.49 µg/mL
[1]; 25 mins
  Solubility: 68.93 µg/mL
[1]; 40 mins
  Solubility: 65.28 µg/mL
[1]; 1 hr
  Solubility: 59.85 µg/mL
[1]; 2 hrs
  Solubility: 54.11 µg/mL
[1]; 3 hrs
  Solubility: 50.75 µg/mL
[1]; 4 hrs
  Solubility: 57.07 µg/mL
[2]
  ending solubility: 1.59 µg/mL
  peak solubility: 3.75 µg/mL
[3]; 3 mins
  Concentration: 1280 ng/mL
[3]
  ending solubility: 2.38 µg/mL
  peak solubility: 1.87 µg/mL

## O=c1ncn2nc(Sc3ccc(F)cc3F)ccc2c1-c1c(Cl)cccc1Cl.Oc1ccccc1 [CC-11]
[1]; 2 mins
  Solubility: 10.19 µg/mL
[1]; 5 mins
  Solubility: 57.50 µg/mL
[1]; 10 mins
  Solubility: 43.26 µg/mL
[1]; 15 mins
  Solubility: 36.28 µg/mL
[1]; 25 mins
  Solubility: 35.33 µg/mL
[1]; 40 mins
  Solubility: 21.33 µg/mL
[1]; 1 hr
  Solubility: 15.09 µg/mL
[1]; 2 hrs
  Solubility: 17.11 µg/mL
[1]; 3 hrs
  Solubility: 12.30 µg/mL
[1]; 4 hrs
  Solubility: 13.98 µg/mL

## O=c1ncn2nc(Sc3ccc(F)cc3F)ccc2c1-c1c(Cl)cccc1Cl.[Cl][Zn][Cl] [CC-18]
[2]
  Concentration: 23630 ng/mL
  ending solubility: 22.57 µg/mL
  peak solubility: 34.49 µg/mL
[3]; 2 mins (Table 17)
  Concentration: 88500 ng/mL
[3]; 5 mins (Table 17)
  Concentration: 68530 ng/mL
[3]; 10 mins (Table 17)
  Concentration: 56840 ng/mL
[3]; 15 mins (Table 17)
  Concentration: 59400 ng/mL
[3]; 25 mins (Table 17)
  Concentration: 47550 ng/mL
[3]; 40 mins (Table 17)
  Concentration: 50990 ng/mL
[3]; 1 hr (Table 17)
  Concentration: 47830 ng/mL
[3]; 2 hrs (Table 17)
  Concentration: 50170 ng/mL
[3]; 3 hrs (Table 17)
  Concentration: 47340 ng/mL
[3]; 4 hrs (Table 17)
  Concentration: 49240 ng/mL
[3]; 24 hrs (Table 17)
  Concentration: 34180 ng/mL
[3]
  ending solubility: 34.18 µg/mL
  peak solubility: 88.50 µg/mL

## O=c1ncn2nc(Sc3ccc(F)cc3F)ccc2c1-c1c(Cl)cccc1Cl [VX-745, 5-(2,6-dichlorophenyl)-2-(2,4-difluorophenylthio)-6H-pyrimido[1,6-b]pyridazin-6-one]
[4]; organic solvent or mixture, solvent acetone
  Solubility: 7000 µg/mL (≈ 16000 µM)
[4]; organic solvent or mixture, solvent acetonitrile
  Solubility: 9000 µg/mL (≈ 20600 µM)
[4]; organic solvent or mixture, solvent ethanol
  Solubility: 2000 µg/mL (≈ 4580 µM)
[4]; organic solvent or mixture, solvent ethyl acetate
  Solubility: < 1000 µg/mL
[4]; organic solvent or mixture, solvent isopropyl alcohol
  Solubility: 1000 µg/mL (≈ 2290 µM)
[4]; organic solvent or mixture, solvent methanol
  Solubility: 10000 µg/mL (≈ 22900 µM)
[4]; organic solvent or mixture, solvent tetrahydrofuran (THF)
  Solubility: 4000 µg/mL (≈ 9170 µM)
[4]; solvent water
  Solubility: < 1000 µg/mL
[1]; thermodynamic from solid, 2 mins
  solubility at 2 min: 11.3 µg/mL (≈ 25.9 µM)
[1]; thermodynamic from solid, 5 mins
  solubility at 5 min: 15.7 µg/mL (≈ 35.9 µM)
[1]; thermodynamic from solid, 10 mins
  solubility at 10 min: 14.9 µg/mL (≈ 34.2 µM)
[1]; thermodynamic from solid, 15 mins
  solubility at 15 min: 17.8 µg/mL (≈ 40.8 µM)
[1]; thermodynamic from solid, 25 mins
  solubility at 25 min: 15.5 µg/mL (≈ 35.6 µM)
[1]; thermodynamic from solid, 40 mins
  solubility at 40 min: 10.7 µg/mL (≈ 24.5 µM)
[1]; thermodynamic from solid, 1 hr
  solubility at 1 h: 6.59 µg/mL (≈ 15.1 µM)
[1]; thermodynamic from solid, 2 hrs
  solubility at 2 h: 5.67 µg/mL (≈ 13 µM)
[1]; thermodynamic from solid, 3 hrs
  solubility at 3 h: 6.32 µg/mL (≈ 14.5 µM)
[1]; thermodynamic from solid, 4 hrs
  solubility at 4 h: 11.3 µg/mL (≈ 25.9 µM)
[2]; [5]
  solubility at 5 min: 17.8 µg/mL (≈ 40.8 µM)
  solubility at 24 h: 9.07 µg/mL (≈ 20.8 µM)
[2]
  Concentration: 5810 ng/mL
[3]; [6]
  solubility at 3 h: 21.4 µg/mL (≈ 48.9 µM)
  solubility at 24 h: 14 µg/mL (≈ 32.1 µM)
[3]; 3 hrs
  Concentration: 21350 ng/mL
